The values that follow come from ChEMBL document CHEMBL4616715, “Discovery of Diphenylacetamides as CXCR7 Inhibitors with Novel β-Arrestin Antagonist Activity” (ACS Med Chem Lett, 2020).

Assay [1] deals with T1, Atypical chemokine receptor 3 (Homo sapiens, UniProt P25106). As to the kind of experiment: Agonist activity at human CXCR7 receptor expressed in CHOK1 cell membranes assessed as increase in beta-arrestin recruitment incubated for 30 mins. It is filed as cell-based, CHO-K1.
In assay [2] the target is T1, Atypical chemokine receptor 3. Kind of assay: Displacement of [125I]-CXCL12 from human CXCR7 receptor expressed in CHOK1 cell membranes incubated for 2 hrs by radiolabeled ligand binding assay. Also noted: species or system CHO-K1. The settings on record: for pKi: read-out: Ki. For orientation: In a radioligand displacement assay an active substance lowers the binding of a labelled ligand.

Assay [3] deals with C-X-C chemokine receptor type 4 (Homo sapiens, UniProt P61073). Kind of assay: Displacement of [125I]-CXCL12 from human CXCR4 receptor expressed in Jurkat cells incubated for 2 hrs by radiolabeled ligand binding assay. It is filed as cell-based.

pEC50, pIC50, pKi: −log10 of the molar value.

T1 sequence (P25106 whole entry): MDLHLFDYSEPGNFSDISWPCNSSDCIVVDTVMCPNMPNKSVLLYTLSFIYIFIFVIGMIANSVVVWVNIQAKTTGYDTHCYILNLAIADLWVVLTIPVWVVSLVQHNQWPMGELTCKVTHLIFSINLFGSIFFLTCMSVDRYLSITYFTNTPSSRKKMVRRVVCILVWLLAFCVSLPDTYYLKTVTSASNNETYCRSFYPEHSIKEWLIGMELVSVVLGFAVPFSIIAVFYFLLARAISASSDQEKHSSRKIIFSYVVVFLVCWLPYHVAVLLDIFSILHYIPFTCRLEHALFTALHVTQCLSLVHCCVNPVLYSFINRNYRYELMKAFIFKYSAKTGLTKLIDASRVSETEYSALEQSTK
C-X-C chemokine receptor type 4, sequence (P61073 whole entry): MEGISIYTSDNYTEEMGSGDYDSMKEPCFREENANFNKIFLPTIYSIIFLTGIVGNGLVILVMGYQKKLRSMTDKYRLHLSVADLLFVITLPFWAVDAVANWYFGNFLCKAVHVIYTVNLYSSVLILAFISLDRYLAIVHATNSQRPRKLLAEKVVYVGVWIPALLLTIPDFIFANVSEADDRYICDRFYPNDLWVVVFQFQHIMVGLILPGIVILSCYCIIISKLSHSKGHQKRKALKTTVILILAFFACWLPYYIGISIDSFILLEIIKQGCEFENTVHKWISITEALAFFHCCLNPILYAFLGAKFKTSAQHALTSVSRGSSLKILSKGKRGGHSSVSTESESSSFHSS

As a reminder, the pEC50 is the EC50 on a negative log10 scale, so that one unit is a factor of ten. Usually pKi stands for −log10 of the Ki, conventionally taken in molar units. With `NC(=O)C(c1ccccc1)(c1ccccc1)[C@@H]1CCN(CCOc2ccc(-c3nnco3)cc2)C1`, in assay [1], the pEC50 is under 5.00. The pKi in assay [2] is 5.39. The Ki in assay [2] (read-out: pKi (converted)) was 4.17 µM.
Take `Cc1noc(-c2ccc(OCCN3CC[C@@H](C(C(N)=O)(c4ccccc4)c4ccccc4)C3)cc2)n1`: the pEC50 in assay [1] was under 5.00. In addition, in assay [2], the pKi is 4.93.
As a reminder, the pIC50 is the IC50 on a negative log10 scale, so that one unit is a factor of ten. Read a high pIC50 as a small IC50. `NC(=O)C(c1ccccc1)(c1ccccc1)[C@@H]1CCN(CCOc2ccc(-c3nccs3)cc2)C1` gave a pIC50 in assay [3] of under 4.82.
Consider `NC(=O)C(c1ccccc1)(c1ccccc1)[C@@H]1CCN(CCOc2ccc(C3=NCCO3)cc2)C1`, for which the pEC50 in assay [1] is under 5.00. Further, the negative logarithm of the Ki (pKi) in assay [2] was 5.18.
